In PMC5078040 (Oncotarget, 2016):

Experiments:
[1] = target: T1, ABL1(F317I)-nonphosphorylated (Homo sapiens, UniProt P00519, F317I); assay: KinomeScan; type: binding; settings: 1uM
T1 construct: purchased DiscoveRx KINOMEscan

[2] = target: T2, ABL1(F317L)-nonphosphorylated (Homo sapiens, UniProt P00519, F317L); assay: KinomeScan; type: binding; settings: 1uM
T2 construct: purchased DiscoveRx KINOMEscan

[3] = target: T3, ABL1(M351T)-phosphorylated (Homo sapiens, UniProt P00519, M351T); assay: KinomeScan; type: binding; settings: 1uM
T3 construct: purchased DiscoveRx KINOMEscan

[4] = target: T4, ALK (Homo sapiens, UniProt Q9UM73); assay: KinomeScan; type: binding; settings: 1uM
T4 construct: purchased DiscoveRx KINOMEscan

[5] = target: T5, BMPR1A (Homo sapiens, UniProt P36894); assay: KinomeScan; type: binding; settings: 1uM
T5 construct: purchased DiscoveRx KINOMEscan

[6] = target: T6, BRSK2 (Homo sapiens, UniProt Q8IWQ3); assay: KinomeScan; type: binding; settings: 1uM
T6 construct: purchased DiscoveRx KINOMEscan

[7] = target: T7, CAMK2D (Homo sapiens, UniProt Q13557); assay: KinomeScan; type: binding; settings: 1uM
T7 construct: purchased DiscoveRx KINOMEscan

[8] = target: T8, CASK (Homo sapiens, UniProt O14936); assay: KinomeScan; type: binding; settings: 1uM
T8 construct: purchased DiscoveRx KINOMEscan
T8 sequence (O14936 whole entry): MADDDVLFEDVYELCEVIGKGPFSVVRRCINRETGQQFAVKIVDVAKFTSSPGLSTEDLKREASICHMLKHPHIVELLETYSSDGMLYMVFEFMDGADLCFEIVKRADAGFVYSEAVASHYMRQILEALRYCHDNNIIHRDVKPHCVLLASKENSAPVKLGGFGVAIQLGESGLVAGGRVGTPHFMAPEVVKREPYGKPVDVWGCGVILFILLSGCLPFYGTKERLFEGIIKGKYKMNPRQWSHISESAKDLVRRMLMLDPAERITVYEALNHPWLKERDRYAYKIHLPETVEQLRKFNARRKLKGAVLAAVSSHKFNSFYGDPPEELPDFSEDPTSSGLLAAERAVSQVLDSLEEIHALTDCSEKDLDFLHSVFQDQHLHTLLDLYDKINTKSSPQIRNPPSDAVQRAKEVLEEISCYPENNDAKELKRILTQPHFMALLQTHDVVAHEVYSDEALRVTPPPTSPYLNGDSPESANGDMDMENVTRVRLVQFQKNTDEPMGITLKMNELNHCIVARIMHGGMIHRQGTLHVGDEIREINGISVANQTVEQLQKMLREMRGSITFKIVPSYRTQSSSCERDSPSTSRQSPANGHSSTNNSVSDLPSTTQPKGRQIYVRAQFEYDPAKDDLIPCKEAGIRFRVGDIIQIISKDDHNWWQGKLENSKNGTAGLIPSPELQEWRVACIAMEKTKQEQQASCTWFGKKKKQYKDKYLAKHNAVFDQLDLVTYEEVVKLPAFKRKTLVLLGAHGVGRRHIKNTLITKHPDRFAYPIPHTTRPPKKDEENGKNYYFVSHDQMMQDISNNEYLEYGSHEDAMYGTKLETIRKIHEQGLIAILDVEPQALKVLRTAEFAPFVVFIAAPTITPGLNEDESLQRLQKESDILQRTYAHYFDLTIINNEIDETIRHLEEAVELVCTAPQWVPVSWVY

[9] = target: T9, CDKL2 (Homo sapiens, UniProt Q92772); assay: KinomeScan; type: binding; settings: 1uM
T9 construct: purchased DiscoveRx KINOMEscan

[10] = target: T10, CHEK2 (Homo sapiens, UniProt O96017); assay: KinomeScan; type: binding; settings: 1uM
T10 construct: purchased DiscoveRx KINOMEscan

[11] = target: T11, CLK1 (Homo sapiens, UniProt P49759); assay: KinomeScan; type: binding; settings: 1uM
T11 construct: purchased DiscoveRx KINOMEscan

[12] = target: T12, EGFR(E746-A750del) (Homo sapiens, UniProt P00533, DEL746-750); assay: KinomeScan; type: binding; settings: 1uM
T12 construct: purchased DiscoveRx KINOMEscan
T12 sequence (P00533 with tags, fused parts or gaps DEL746-750 limits assumed): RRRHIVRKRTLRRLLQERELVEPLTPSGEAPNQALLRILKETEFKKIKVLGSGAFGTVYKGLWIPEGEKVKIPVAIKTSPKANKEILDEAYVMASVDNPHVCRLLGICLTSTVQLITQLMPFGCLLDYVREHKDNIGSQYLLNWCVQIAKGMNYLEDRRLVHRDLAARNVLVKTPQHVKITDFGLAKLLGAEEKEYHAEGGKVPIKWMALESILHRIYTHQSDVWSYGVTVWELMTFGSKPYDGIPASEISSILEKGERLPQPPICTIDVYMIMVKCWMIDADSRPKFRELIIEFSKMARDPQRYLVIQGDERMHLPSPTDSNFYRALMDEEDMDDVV

[13] = target: T13, EGFR(L747-S752del, P753S) (Homo sapiens, UniProt P00533, DEL747-752/P753S); assay: KinomeScan; type: binding; settings: 1uM
T13 construct: purchased DiscoveRx KINOMEscan

[14] = target: T14, EPHA2 (Homo sapiens, UniProt P29317); assay: KinomeScan; type: binding; settings: 1uM
T14 construct: purchased DiscoveRx KINOMEscan

[15] = target: T15, ERK8 (Homo sapiens, UniProt Q8TD08); assay: KinomeScan; type: binding; settings: 1uM
T15 construct: purchased DiscoveRx KINOMEscan

[16] = target: T16, FAK (Homo sapiens, UniProt Q05397); assay: KinomeScan; type: binding; settings: 1uM
T16 construct: purchased DiscoveRx KINOMEscan

[17] = target: T17, FGFR1 (Homo sapiens, UniProt P11362); assay: KinomeScan; type: binding; settings: 1uM
T17 construct: purchased DiscoveRx KINOMEscan

[18] = target: T18, FLT3(D835Y) (Homo sapiens, UniProt P36888, D835Y); assay: KinomeScan; type: binding; settings: 1uM
T18 construct: purchased DiscoveRx KINOMEscan

[19] = target: T19, GSK3B (Homo sapiens, UniProt P49841); assay: KinomeScan; type: binding; settings: 1uM
T19 construct: purchased DiscoveRx KINOMEscan

[20] = target: T20, HIPK4 (Homo sapiens, UniProt Q8NE63); assay: KinomeScan; type: binding; settings: 1uM
T20 construct: purchased DiscoveRx KINOMEscan

[21] = target: T21, IKK-alpha (Homo sapiens, UniProt O15111); assay: KinomeScan; type: binding; settings: 1uM
T21 construct: purchased DiscoveRx KINOMEscan
T21 sequence (O15111 whole entry): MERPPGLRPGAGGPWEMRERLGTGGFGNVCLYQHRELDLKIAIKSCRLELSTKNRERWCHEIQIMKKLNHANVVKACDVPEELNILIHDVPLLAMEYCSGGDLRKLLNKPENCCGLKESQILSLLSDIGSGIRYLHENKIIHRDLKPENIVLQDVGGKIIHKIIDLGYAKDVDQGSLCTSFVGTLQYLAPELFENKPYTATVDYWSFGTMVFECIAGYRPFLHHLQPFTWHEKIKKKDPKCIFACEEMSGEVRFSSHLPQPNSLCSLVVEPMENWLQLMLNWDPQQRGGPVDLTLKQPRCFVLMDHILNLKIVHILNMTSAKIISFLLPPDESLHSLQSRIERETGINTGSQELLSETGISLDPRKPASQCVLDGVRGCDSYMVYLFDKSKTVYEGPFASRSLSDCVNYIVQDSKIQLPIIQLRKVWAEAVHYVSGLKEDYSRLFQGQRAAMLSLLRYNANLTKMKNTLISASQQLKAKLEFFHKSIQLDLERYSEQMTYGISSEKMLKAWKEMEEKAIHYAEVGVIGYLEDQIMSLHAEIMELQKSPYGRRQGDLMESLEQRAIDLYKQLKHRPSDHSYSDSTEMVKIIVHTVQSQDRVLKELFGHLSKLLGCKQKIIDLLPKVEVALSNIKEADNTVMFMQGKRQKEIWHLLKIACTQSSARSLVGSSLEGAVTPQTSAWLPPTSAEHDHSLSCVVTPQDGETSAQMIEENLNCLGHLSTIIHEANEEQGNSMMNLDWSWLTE

[22] = target: T22, IKK-epsilon (Homo sapiens, UniProt Q14164); assay: KinomeScan; type: binding; settings: 1uM
T22 construct: purchased DiscoveRx KINOMEscan

[23] = target: T23, JNK2 (Homo sapiens, UniProt P45984); assay: KinomeScan; type: binding; settings: 1uM
T23 construct: purchased DiscoveRx KINOMEscan

[24] = target: T24, LYN (Homo sapiens, UniProt P07948); assay: KinomeScan; type: binding; settings: 1uM
T24 construct: purchased DiscoveRx KINOMEscan

[25] = target: T25, MAK (Homo sapiens, UniProt P20794); assay: KinomeScan; type: binding; settings: 1uM
T25 construct: purchased DiscoveRx KINOMEscan

[26] = target: T26, MAP3K2 (Homo sapiens, UniProt Q9Y2U5); assay: KinomeScan; type: binding; settings: 1uM
T26 construct: purchased DiscoveRx KINOMEscan

[27] = target: T27, MAP3K3 (Homo sapiens, UniProt Q99759); assay: KinomeScan; type: binding; settings: 1uM
T27 construct: purchased DiscoveRx KINOMEscan

[28] = target: T28, MARK2 (Homo sapiens, UniProt Q7KZI7); assay: KinomeScan; type: binding; settings: 1uM
T28 construct: purchased DiscoveRx KINOMEscan

[29] = target: T29, MAST1 (Homo sapiens, UniProt Q9Y2H9); assay: KinomeScan; type: binding; settings: 1uM
T29 construct: purchased DiscoveRx KINOMEscan

[30] = target: T30, MINK (Homo sapiens, UniProt Q8N4C8); assay: KinomeScan; type: binding; settings: 1uM
T30 construct: purchased DiscoveRx KINOMEscan

[31] = target: T31, MLK2 (Homo sapiens, UniProt Q02779); assay: KinomeScan; type: binding; settings: 1uM
T31 construct: purchased DiscoveRx KINOMEscan

[32] = target: T32, PAK6 (Homo sapiens, UniProt Q9NQU5); assay: KinomeScan; type: binding; settings: 1uM
T32 construct: purchased DiscoveRx KINOMEscan
T32 sequence (Q9NQU5 whole entry): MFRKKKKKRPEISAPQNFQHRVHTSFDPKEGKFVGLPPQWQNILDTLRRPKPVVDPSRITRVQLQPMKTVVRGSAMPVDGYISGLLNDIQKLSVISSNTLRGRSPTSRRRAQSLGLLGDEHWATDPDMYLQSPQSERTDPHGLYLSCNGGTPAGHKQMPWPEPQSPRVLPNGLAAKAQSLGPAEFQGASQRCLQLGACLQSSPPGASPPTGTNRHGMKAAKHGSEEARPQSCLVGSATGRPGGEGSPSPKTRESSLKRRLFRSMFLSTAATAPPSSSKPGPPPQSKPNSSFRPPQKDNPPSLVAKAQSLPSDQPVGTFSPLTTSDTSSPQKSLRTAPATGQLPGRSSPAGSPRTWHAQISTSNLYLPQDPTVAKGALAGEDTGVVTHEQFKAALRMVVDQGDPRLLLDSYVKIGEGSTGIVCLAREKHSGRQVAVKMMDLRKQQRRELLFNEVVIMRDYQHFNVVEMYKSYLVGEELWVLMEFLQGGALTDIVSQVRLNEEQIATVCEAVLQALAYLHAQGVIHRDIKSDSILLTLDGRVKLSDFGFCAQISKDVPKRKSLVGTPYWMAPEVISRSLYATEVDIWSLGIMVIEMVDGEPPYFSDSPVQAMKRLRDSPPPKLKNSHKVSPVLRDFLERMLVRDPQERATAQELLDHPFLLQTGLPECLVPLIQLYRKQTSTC

[33] = target: T33, PCTK1 (Homo sapiens, UniProt Q00536); assay: KinomeScan; type: binding; settings: 1uM
T33 construct: purchased DiscoveRx KINOMEscan

[34] = target: T34, PLK2 (Homo sapiens, UniProt Q9NYY3); assay: KinomeScan; type: binding; settings: 1uM
T34 construct: purchased DiscoveRx KINOMEscan

[35] = target: T35, PLK4 (Homo sapiens, UniProt O00444); assay: KinomeScan; type: binding; settings: 1uM
T35 construct: purchased DiscoveRx KINOMEscan

[36] = target: T36, RIPK2 (Homo sapiens, UniProt O43353); assay: KinomeScan; type: binding; settings: 1uM
T36 construct: purchased DiscoveRx KINOMEscan

[37] = target: T37, SLK (Homo sapiens, UniProt Q9H2G2); assay: KinomeScan; type: binding; settings: 1uM
T37 construct: purchased DiscoveRx KINOMEscan

[38] = target: T38, STK35 (Homo sapiens, UniProt Q8TDR2); assay: KinomeScan; type: binding; settings: 1uM
T38 construct: purchased DiscoveRx KINOMEscan
T38 sequence (Q8TDR2 whole entry): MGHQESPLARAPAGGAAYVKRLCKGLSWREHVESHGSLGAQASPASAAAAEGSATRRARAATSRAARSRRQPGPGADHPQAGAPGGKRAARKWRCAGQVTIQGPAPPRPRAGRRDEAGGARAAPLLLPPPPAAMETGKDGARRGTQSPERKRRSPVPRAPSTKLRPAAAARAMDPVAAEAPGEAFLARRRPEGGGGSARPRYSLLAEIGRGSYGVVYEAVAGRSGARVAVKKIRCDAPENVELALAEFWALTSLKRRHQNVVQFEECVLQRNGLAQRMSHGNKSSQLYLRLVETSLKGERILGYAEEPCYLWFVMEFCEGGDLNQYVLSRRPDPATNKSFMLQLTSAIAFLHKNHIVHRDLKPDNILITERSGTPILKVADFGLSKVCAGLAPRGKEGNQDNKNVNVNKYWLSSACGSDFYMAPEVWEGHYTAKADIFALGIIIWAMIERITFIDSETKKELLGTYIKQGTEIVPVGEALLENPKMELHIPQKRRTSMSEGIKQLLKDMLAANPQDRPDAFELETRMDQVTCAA

[39] = target: T39, TIE1 (Homo sapiens, UniProt P35590); assay: KinomeScan; type: binding; settings: 1uM
T39 construct: purchased DiscoveRx KINOMEscan

[40] = target: T40, TRKA (Homo sapiens, UniProt P04629); assay: KinomeScan; type: binding; settings: 1uM
T40 construct: purchased DiscoveRx KINOMEscan

[41] = target: T41, TXK (Homo sapiens, UniProt P42681); assay: KinomeScan; type: binding; settings: 1uM
T41 construct: purchased DiscoveRx KINOMEscan

[42] = target: T42, WEE1 (Homo sapiens, UniProt P30291); assay: KinomeScan; type: binding; settings: 1uM
T42 construct: purchased DiscoveRx KINOMEscan

[43] = target: T43, WNK3 (Homo sapiens, UniProt Q9BYP7); assay: KinomeScan; type: binding; settings: 1uM
T43 construct: purchased DiscoveRx KINOMEscan
T43 sequence (Q9BYP7 whole entry): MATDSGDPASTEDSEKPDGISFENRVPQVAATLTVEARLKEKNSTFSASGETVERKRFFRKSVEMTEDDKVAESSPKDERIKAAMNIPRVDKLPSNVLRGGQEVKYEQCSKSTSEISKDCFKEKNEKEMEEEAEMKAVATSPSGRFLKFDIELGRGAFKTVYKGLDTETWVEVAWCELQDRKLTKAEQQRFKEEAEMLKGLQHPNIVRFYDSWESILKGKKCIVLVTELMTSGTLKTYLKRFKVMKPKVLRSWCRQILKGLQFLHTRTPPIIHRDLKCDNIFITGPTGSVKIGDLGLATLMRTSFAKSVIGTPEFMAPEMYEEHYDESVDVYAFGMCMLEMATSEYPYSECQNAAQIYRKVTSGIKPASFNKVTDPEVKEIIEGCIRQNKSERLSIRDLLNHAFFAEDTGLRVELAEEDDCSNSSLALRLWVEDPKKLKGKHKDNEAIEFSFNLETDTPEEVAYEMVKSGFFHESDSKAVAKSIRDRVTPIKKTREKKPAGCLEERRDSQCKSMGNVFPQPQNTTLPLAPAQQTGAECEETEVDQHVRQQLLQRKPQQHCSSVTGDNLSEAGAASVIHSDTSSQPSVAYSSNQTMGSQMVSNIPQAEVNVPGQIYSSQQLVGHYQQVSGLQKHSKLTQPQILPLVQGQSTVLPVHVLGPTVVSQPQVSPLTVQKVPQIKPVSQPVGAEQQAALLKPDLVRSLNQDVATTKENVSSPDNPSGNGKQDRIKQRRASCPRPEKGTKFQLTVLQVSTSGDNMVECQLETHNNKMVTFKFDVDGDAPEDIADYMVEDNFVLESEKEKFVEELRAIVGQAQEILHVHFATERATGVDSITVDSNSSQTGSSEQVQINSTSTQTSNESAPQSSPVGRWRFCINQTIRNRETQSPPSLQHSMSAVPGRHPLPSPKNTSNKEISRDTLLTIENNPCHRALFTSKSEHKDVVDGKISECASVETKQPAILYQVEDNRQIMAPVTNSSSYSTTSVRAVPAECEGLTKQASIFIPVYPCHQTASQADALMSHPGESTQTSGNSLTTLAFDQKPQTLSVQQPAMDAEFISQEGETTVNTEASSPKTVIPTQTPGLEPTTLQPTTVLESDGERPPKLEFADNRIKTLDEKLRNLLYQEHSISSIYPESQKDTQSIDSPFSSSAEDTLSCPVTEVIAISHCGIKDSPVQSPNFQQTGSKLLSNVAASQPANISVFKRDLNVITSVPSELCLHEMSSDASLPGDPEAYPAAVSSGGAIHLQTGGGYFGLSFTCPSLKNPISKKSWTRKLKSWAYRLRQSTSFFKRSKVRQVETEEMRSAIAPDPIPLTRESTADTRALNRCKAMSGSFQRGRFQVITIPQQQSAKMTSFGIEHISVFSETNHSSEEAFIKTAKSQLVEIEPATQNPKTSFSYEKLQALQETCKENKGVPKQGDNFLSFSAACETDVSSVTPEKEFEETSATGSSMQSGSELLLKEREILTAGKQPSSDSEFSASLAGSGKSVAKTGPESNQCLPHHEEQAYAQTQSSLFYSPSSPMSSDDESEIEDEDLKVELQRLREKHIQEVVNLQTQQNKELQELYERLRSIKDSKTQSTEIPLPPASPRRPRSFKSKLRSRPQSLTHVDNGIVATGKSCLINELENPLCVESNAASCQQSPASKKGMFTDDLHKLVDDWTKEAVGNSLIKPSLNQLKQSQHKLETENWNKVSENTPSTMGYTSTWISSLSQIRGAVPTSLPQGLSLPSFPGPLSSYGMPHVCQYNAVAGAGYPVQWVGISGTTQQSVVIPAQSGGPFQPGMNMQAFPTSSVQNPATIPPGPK

[44] = target: T44, PIK3C2A (Homo sapiens, UniProt O00443); assay: ADP-glo biochemical assay
T44 construct: purchased Invitrogen
Procedure: The reaction in each tube was started immediately by adding ATP and kept going for an hour under 37°C. After the tube cooled for 5 minutes at room temperature, 5 μL solvent reactions were carried out in a 384-well plate. Then 5 μL of ADP-Glo™ reagent was added into each well to stop the reaction and consume the remaining ADP within 40 minutes. At the end, 10 μL of kinase detection reagent was added into the well and incubated for 30 minutes to produce a luminescence signal. Luminescence signal was measured with an automated plate reader (Perkin-Elmer Envision) and each measurement was performed in triplicate.

Cc1nc(NC(=O)[C@@H](N)C(C)C)sc1-c1cnc(Cl)c(NS(=O)(=O)c2ccccc2)c1 [PI3KD-IN-015]
KinomeScan ABL1(F317I)-nonphosphorylated [1]: 100
KinomeScan ABL1(F317L)-nonphosphorylated [2]: 100
KinomeScan ABL1(M351T)-phosphorylated [3]: 98
KinomeScan ALK [4]: 100
KinomeScan BMPR1A [5]: 84
KinomeScan BRSK2 [6]: 100
KinomeScan CAMK2D [7]: 95
KinomeScan CASK [8]: 95
KinomeScan CDKL2 [9]: 100
KinomeScan CHEK2 [10]: 88
KinomeScan CLK1 [11]: 100
KinomeScan EGFR(E746-A750del) [12]: 100
KinomeScan EGFR(L747-S752del, P753S) [13]: 100
KinomeScan EPHA2 [14]: 100
KinomeScan ERK8 [15]: 98
KinomeScan FAK [16]: 80
KinomeScan FGFR1 [17]: 100
KinomeScan FLT3(D835Y) [18]: 98
KinomeScan GSK3B [19]: 97
KinomeScan HIPK4 [20]: 83
KinomeScan IKK-alpha [21]: 95
KinomeScan IKK-epsilon [22]: 100
KinomeScan JNK2 [23]: 100
KinomeScan LYN [24]: 100
KinomeScan MAK [25]: 72
KinomeScan MAP3K2 [26]: 100
KinomeScan MAP3K3 [27]: 100
KinomeScan MARK2 [28]: 95
KinomeScan MAST1 [29]: 100
KinomeScan MINK [30]: 100
KinomeScan MLK2 [31]: 89
KinomeScan PAK6 [32]: 91
KinomeScan PCTK1 [33]: 93
KinomeScan PLK2 [34]: 83
KinomeScan PLK4 [35]: 99
KinomeScan RIPK2 [36]: 98
KinomeScan SLK [37]: 100
KinomeScan STK35 [38]: 92
KinomeScan TIE1 [39]: 94
KinomeScan TRKA [40]: 96
KinomeScan TXK [41]: 100
KinomeScan WEE1 [42]: 100
KinomeScan WNK3 [43]: 100
IC50 [44]: > 10 µM
